Measured values published in patent publication US8436004B2, “Bicycloaniline derivative” (MSD K.K., priority 2007, dated 2013).

What was measured:
Wee1 kinase = target: T1, Wee1 kinase (Homo sapiens, UniProt P30291); assay: Wee1 kinase-inhibitory effect (33P-ATP, Poly(Lys,Tyr) substrate, filter assay); type: biochemical; details: 10 μM ATP, 30° C., 30 minutes
T1 construct: made in house; host or cells: Sf9 insect cells (recombinant baculovirus)
From the text: Pharmacological Test 1 (Wee1 Kinase-Inhibitory Effect)
(1) Purification of Wee1 Kinase:
A cDNA of Wee1 kinase with […] (GST) fused at the amino terminal thereof was inserted into a baculovirus expression vector to construct a recombinant baculovirus, with which cells of an insect cell line Sf9 were infected for high expression therein. The infected cells were recovered and solubilized, and then the GST-tagged Wee1 kinase protein was adsorbed by a glutathion column, and eluted from the column with glutathion, and the active fraction was desalted in a desalting column to give a purified enzyme.
(2) Determination of Wee1 Kinase Activity:
In determination of the Wee1 kinase activity, a synthetic peptide, Poly(Lys,Tyr) Hydrobromide (Lys:Tyr (4:1)) bought from Sigma was used as the substrate.
The amount of the reaction liquid was 21.1 μL; and the composition of the reaction buffer was 50 mM Tris-HCl buffer (pH 7.4)/10 mM magnesium chloride/1 mM dithiothreitol. The purified Wee1 kinase, 2.5 μg of the substrate peptide, 10 μM of non-labeled adenosine triphosphate (ATP) and 1 μCi of [γ-^33P]-labeled ATP (2500 Ci/mmol or more) were added to it, and reacted at 30° C. for 30 minutes. Next, 10 μL of 350 mM phosphate buffer was added to the reaction system to stop the reaction. The substrate peptide was adsorbed by a P81 paper filter 96-well plate, then washed a few times with 130 mM phosphate buffer, and its radioactivity was counted with a liquid scintillation counter. The [γ-^33P]-labeled ATP was bought from Amersham Bioscience.
To add the test compound to the reaction system, the compound was diluted with dimethylsulfoxide (DMSO) to prepare a series of dilutions. 1.1 μL of each dilution was added to the reaction system. As a control, 1.1 μL of DMSO was added to the reaction system.

[1] = test system: Cdc2 (Cdk1) tyrosine 15-phosphorylation in NCI-H1299 cells; assay: Cdc2 (Cdk1) tyrosine 15-phosphorylation-inhibitory effect in camptothecin-treated NCI-H1299 cells (ELISA); type: cell-based; details: Homo sapiens; NCI-H1299, camptothecin 200 nM 16 hours, then test compound + nocodazole 8 hours; read-out: Cdc2-Y15 Phosphorylation-Inhibitory Effect (H1299, + camptothecin) (EC50)
From the text: Pharmacological Test 2 (Method of Determining Drug Potency with Cells (Cdc2 (Cdk1) Tyrosine 15-Phosphorylation-Inhibitory Effect))
Fetal bovine serum (FBS) was obtained from Morgate; media RPMI1640 and DMEM were from Invitrogen; camptothecin was from Sigma; gemcitabine was from Nippon Eli Lilly; nocodazole and protease inhibitor cocktail were from Sigma; rabbit anti-Cdc2 antibody and mouse anti-Cdc2 antibody were from Santa Cruz Biotechnology; rabbit anti-tyrosine 15-phosphorylated Cdc2 antibody and horseradish peroxidase-labeled anti-mouse IgG antibody were from Cell Signaling Technology; sure blue reserve TMB peroxidase substrate was from Kirkegaard and Perry Laboratories.
Human non-small cell lung cancer cells (NCI-H1299) and human colon cancer cells (WiDr) were obtained from American Type Culture Collection (ATCC).
In the method of using NCI-H1299 cells, the cells were suspended in a medium of 10% FBS-added RPMI1640, and the cell suspension was applied to a 96-well Nunclondelta-processed plastic plate (bought from Nunc), in an amount of 2000 cells/100 μL/well, in which the cells were incubated overnight in 5% CO2-95% air at 37° C. Camptothecin was dissolved in dimethylsulfoxide (DMSO), and diluted with a medium of 10% FBS-added RPMI1640, and then this was applied to the plate on which the cells had been previously sowed, in an amount of 50 μL/well in such a manner that the final concentration of camptothecin could be 200 nM. Then, the cells were incubated for 16 hours at 37° C. in 5% CO2-95% air. The test compound was stepwise diluted with DMSO, then diluted with 4000 nM nocodazole-containing, 10% FBS-added RPMI1640, and applied to the plate on which the camptothecin-treated cells had been sowed, in an amount of 50 μL/well. The cells were incubated for 8 hours at 37° C. in 5% CO2-95% air, then the culture was removed, and a cytolytic buffer was added to the plate in an amount of 100 μL/well, shaken at 4° C. for 2 hours, then frozen at −80° C., and thawed to give a cell solution. Cdc2 and tyrosine 15-phosphorylated Cdc2 in the cell solution were determined through enzyme-linked immunosorbent assay (ELISA), and the ratio of tyrosine 15-phosphorylated Cdc2 to Cdc2 was calculated to obtain the 50% phosphorylation-inhibitory concentration of the test compound to the cells (EC50, nM). The cytolytic buffer used herein is an aqueous solution containing 20 mM Hepes (pH 7.5), 150 mM sodium chloride, 1 mM disodium ethylenediaminetetraacetate, 0.1% polyoxyethylene (10) octylphenyl ether, 1% protease inhibitor cocktail, 1 mM dithiothreitol, 2 mM sodium orthovanadate, 10 mM sodium fluoride and 10 mM glycerol diphosphate. Cdc2 was determined through ELISA as follows: A rabbit anti-Cdc2 antibody solution, which had been diluted 200-fold with 50 mM carbonate-bicarbonate buffer (pH 9.6), was applied to a 96-well maxisorpimmuno plate (bought from Nunc), in an amount of 50 μL/well, and statically kept overnight at 4° C. so as to fix the antibody on the plate. Next, this was washed three times with phosphate-buffered physiological saline (PBS), and 5% bovine serum albumin-containing PBS (5% BSA/PBS) was added thereto in an amount of 300 μL/well, and statically kept at room temperature for 2 hours, and then again washed three times with PBS. A mouse anti-Cdc2 antibody solution that had been diluted 100-fold with 0.05% polyoxyethylene sorbitan monolaurate and 1% BSA-containing Tris-HCl-buffered physiological saline (1% BSA/TBS-T) was added to it in an amount of 50 μL/well, and the cell solution was added thereto in an amount of 5 μL/well and statically kept overnight at 4° C. Next, this was washed three times with 0.05% polyoxyethylene sorbitan monolaurate and 0.1% BSA-containing Tris-HCl-buffered physiological saline (0.1% BSA/TBS-T), and then a horseradish peroxidase-labeled anti-mouse IgG antibody solution that had been diluted 2000-fold with 1% BSA/TBS-T was added thereto in an amount of 70 μL/well, and statically kept at room temperature for 3 hours. […]

T1 sequence (P30291 whole entry): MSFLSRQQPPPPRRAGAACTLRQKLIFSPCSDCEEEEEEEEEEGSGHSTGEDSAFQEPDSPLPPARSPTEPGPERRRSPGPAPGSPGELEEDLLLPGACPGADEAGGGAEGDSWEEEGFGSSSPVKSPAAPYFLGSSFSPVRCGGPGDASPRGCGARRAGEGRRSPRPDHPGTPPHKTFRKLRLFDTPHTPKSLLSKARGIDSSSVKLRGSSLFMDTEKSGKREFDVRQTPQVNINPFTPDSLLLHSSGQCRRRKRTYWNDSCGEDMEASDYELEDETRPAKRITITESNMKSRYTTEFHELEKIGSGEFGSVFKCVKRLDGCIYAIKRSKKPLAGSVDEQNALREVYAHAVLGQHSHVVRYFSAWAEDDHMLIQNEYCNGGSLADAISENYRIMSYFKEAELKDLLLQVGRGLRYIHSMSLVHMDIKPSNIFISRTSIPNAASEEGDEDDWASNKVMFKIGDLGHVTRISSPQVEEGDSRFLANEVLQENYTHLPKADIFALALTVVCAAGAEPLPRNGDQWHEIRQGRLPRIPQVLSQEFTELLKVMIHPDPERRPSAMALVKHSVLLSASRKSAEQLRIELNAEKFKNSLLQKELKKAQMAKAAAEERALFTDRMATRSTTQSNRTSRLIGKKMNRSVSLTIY

IC50 (Wee1 kinase) [nM]	EC50 [1] [nM]	SMILES
6.8	50	CN1CCc2ccc(Nc3ncc4c(=N)n(-c5c(F)cccc5Cl)c(=O)[nH]c4n3)cc2C1 [Example 16, 3-(2-chloro-6-fluorophenyl)-4-imino-7-{[2-methyl-1,2,3,4-tetrahydroisoquinolin-7-yl]amino}-3,4-dihydropyrimido[4,5-d]pyrimidin-2(1H)-one]
9.6	70	CN1CCc2cc(Nc3ncc4c(=N)n(-c5c(Cl)ccnc5Cl)c(=O)[nH]c4n3)ccc2C1(C)C [Example 5, 3-(2,4-dichloropyridin-3-yl)-4-imino-7-{[1,1,2-trimethyl-1,2,3,4-tetrahydroisoqunolin-6-yl]amino}-3,4-dihydropyrimido[4,5-d]pyrimidin-2(1H)-one]
6.5	59	CN(C)CC1CCc2cc(Nc3ncc4c(=N)n(-c5c(Cl)cccc5Cl)c(=O)[nH]c4n3)ccc2C1 (stereo not drawn) [Example 53]
9.2	47	CN1CCc2ccc(Nc3ncc4c(=N)n(-c5c(F)cc(F)cc5Cl)c(=O)[nH]c4n3)cc2C1 [Example 17, 3-(2-chloro-4,6-difluorophenyl)-4-imino-7-{[2-methyl-1,2,3,4-tetrahydroisoquinolin-7-yl]amino}-3,4-dihydropyrimido[4,5-d]pyrimidin-2(1H)-one]
4.8	11	Cc1cc(Nc2ncc3c(=N)n(-c4c(Cl)cccc4Cl)c(=O)[nH]c3n2)cc2c1CCN(C)C2 [Example 21, 3-(2,6-dichlorophenyl)-7-{[2,5-dimethyl-1,2,3,4-tetrahydroisoquinolin-7-yl]amino}-4-imino-3,4-dihydropyrimido[4,5-d]pyrimidin-2(1H)-one]
5.2	16	Cn1c(=O)n(-c2c(Cl)cccc2Cl)c(=N)c2cnc(Nc3ccc4c(c3)CCN(CCO)C4(C)C)nc21 [Example 22, 3-(2,6-dichlorophenyl)-7-{[2-(2-hydroxyethyl)-1,1-dimethyl-1,2,3,4-tetrahydroisoquinolin-6-yl]amino}-4-imino-1-methyl-3,4-dihydropyrimido[4,5-d]pyrimidin-2(1H)-one]
7.1	25	CCN1CCc2cc(Nc3ncc4c(=N)n(-c5c(Cl)cccc5Cl)c(=O)[nH]c4n3)ccc2C1 [Example 30, 3-(2,6-dichlorophenyl)-4-imino-7-{[2-ethyl-1,2,3,4-tetrahydroisoquinolin-6-yl]amino}-3,4-dihydropyrimido[4,5-d]pyrimidin-2(1H)-one]
8.6	54	CN1CCc2ccc(Nc3ncc4c(=N)n(-c5c(Cl)cccc5Cl)c(=O)[nH]c4n3)cc2CC1 [Example 48, 3-(2,6-dichlorophenyl)-4-imino-7-[(3-methyl-2,3,4,5-tetrahydro-1H-3-benzazepin-7-yl)amino]-3,4-dihydropyrimido[4,5-d]pyrimidin-2(1H)-one]
3.3	30	CN1Cc2cc(Nc3ncc4c(=O)n(-c5c(Cl)cccc5Cl)c(=O)[nH]c4n3)ccc2C2(CC2)C1 [Example 82, 3-(2,6-dichlorophenyl)-7-[(2′-methyl-2′,3′-dihydro-1′H-spiro[cyclopropane-1,4′-isoquinolin]-7′-yl)amino]pyrimido[4,5-d]pyrimidin-2,4(1H,3H)-dione]
8.3	28	CN1CCc2cc(Nc3ncc4c(=N)n(-c5c(Cl)cccc5Cl)c(=O)[nH]c4n3)ccc2C1(C)C [Example 4, 3-(2,6-dichlorophenyl)-4-imino-7-[(1,1,2-trimethyl-1,2,3,4-tetrahydroisoquinolin-6-yl)amino]-3,4-dihydropyrimido[4,5-d]pyrimidin-2(1H)-one]
6.3		CC(=O)N1CCc2cc(Nc3ncc4c(=N)n(-c5c(Cl)cccc5Cl)c(=O)[nH]c4n3)ccc2C1(C)C [Example 79, 7-[(2-acetyl-1,1-dimethyl-1,2,3,4-tetrahydroisoquinolin-6-yl)amino]-3-(2,6-dichlorophenyl)-4-imino-3,4-dihydropyrimido[4,5-d]pyrimidin-2(1H)-one]
